From patent US20060111445A1, “Novel carboxylic acids and derivatives for the treatment of and preventing diabetes and dyslipidaemia” (priority 2003, published 2006)

Key:
[1] = molecular target: T1, chimeric protein PPARγ-Gal4 (Homo sapiens, UniProt P37231); assay: PPAR activation, Gal4 chimera luciferase reporter in co-transfected CV-1 cells; assay type: cell-based; conditions: 50 μM, 18 hours contact, relative to control cells without product
T1 construct: Gal4 (fusion partner); expressed in transfected cells; host or cells: CV-1 cells (monkey kidney cells)
T1 sequence (P37231 238-503 limits assumed): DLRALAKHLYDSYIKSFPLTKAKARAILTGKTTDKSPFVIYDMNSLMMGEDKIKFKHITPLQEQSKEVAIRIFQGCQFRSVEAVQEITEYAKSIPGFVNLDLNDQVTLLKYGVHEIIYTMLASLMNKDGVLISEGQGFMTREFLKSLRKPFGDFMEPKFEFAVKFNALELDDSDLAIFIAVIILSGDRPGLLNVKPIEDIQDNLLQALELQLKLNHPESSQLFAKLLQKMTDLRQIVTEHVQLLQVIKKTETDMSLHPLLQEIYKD
Method: (§1) The measurement of the PPAR activation was performed according to a technique described by Lehmann et al. (1995, J. Biol. Chem. 270: 12953-12956).
(§2) CV-1 cells (monkey kidney cells) are co-transfected with an expression vector for the chimeric proteins PPARα-Gal4 or PPARγ-Gal4 and with a “reporter” plasmid that allows the expression of the luciferase gene placed under the control of a promoter containing Gal4 response elements.
(§3) The cells are plated into 96-well microplates and co-transfected using a commercial reagent with the reporter plasmid (pG5-tk-pGL3) and the expression vector for the chimeric protein (PPARα-Gal4 or PPARγ-Gal4). After incubating for 4 hours, whole culture medium (comprising 10% foetal calf serum) is added to the wells. After 24 hours, the medium is removed and replaced with whole medium comprising the test products (50 μM final). The products are left in contact with the cells for 18 hours. The cells are then lysed and the luciferase activity is measured using a luminometer. A PPAR activation factor can then be calculated by means of the activation of the expression of the reporter gene induced by the product (relative to the control cells that have not received any product).

[2] = molecular target: T2, chimeric protein PPARα-Gal4 (Homo sapiens, UniProt Q07869); assay: as above; assay type: cell-based; conditions: 50 μM, 18 hours contact, relative to control cells without product
T2 construct: Gal4 (fusion partner); expressed in transfected cells; host or cells: CV-1 cells (monkey kidney cells)
T2 sequence (Q07869 239-466 limits assumed): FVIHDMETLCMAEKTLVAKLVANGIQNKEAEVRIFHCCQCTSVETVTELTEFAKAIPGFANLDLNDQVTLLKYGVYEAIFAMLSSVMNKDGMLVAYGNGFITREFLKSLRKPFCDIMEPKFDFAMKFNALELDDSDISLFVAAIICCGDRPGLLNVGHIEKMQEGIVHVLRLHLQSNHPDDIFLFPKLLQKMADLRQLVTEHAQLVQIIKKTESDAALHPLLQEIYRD
Method: as §1, §2, §3

[3] = test system: vector expressing Gal4 alone; assay: Luciferase reporter control without the PPAR ligand binding domain in CV-1 cells; assay type: cell-based
Method: as §2
as §3, with “The products are left in contact with the cells for 18 hours.” left out
By way of example, the compound of Example 1, at a concentration of 50 μM, activates the chimeric protein PPARα-Gal4 by factor of 18, and the chimeric protein PPARγ-Gal4 by a factor of 39. In the absence of the binding domain for the PPAR α or γ ligand (vector expressing Gal4 alone), the luciferase activity measured in the presence of this product is zero.

| Structure (SMILES) | melting point [°C] | PPAR activation factor (activation of the chimeric protein PPARγ-Gal4) [1] | PPAR activation factor (activation of the chimeric protein PPARα-Gal4) [2] | luciferase activity in the absence of the binding domain for the PPAR α or γ ligand [3] |
| --- | --- | --- | --- | --- |
| CCCCCCc1cc2c(cc1SCCCC(=O)O)C(=O)CC2 [Example 42, 4-(6-hexyl-3-oxoindan-5-ylsulfanyl)butyric acid] | 100 |  |  |  |
| CCCCCCc1cc2c(cc1NCC(=O)O)C(=O)CC2 [Example 38, (6-Hexyl-3-oxoindan-5-ylamino)acetic acid] | 144 |  |  |  |
| CCCCCCc1cc2c(cc1NCC(=O)O)C(=O)CC2 [Example 36, (6-Hexyl-3-oxoindan-5-ylamino)acetic acid] | 110 |  |  |  |
| CCCCCCc1cc2c(cc1OCCCC(=O)O)C(=NO)CC2 [Example 24, 4-(6-hexyl-3-(hydroxyimino)-5-indanyloxy]butyric acid] | 148 |  |  |  |
| CCCCCCc1cc2c(cc1OCCCC(=O)O)C(=O)CC2 [Example 1, 4-(6-hexyl-3-oxoindan-5-yloxy)butyric acid] |  | 39 | 18 | zero |
